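Interpolation was linear, between the two tested concentrations surrounding the appropriate level; five concentrations were tested over 48 hours in 96-well plates. TGI is the concentration that stops growth completely.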
Columns and labels:
Assay in all cases: growth of human tumour cells (NCI), 48 h
HCT-116 colon = system: HCT-116 colon
RPMI-8226 leukemia = system: RPMI-8226 leukemia
NCI-H226 lung = system: NCI-H226 lung
MDA-MB-435 = system: MDA-MB-435
KM12 colon = system: KM12 colon
786-0 renal = system: 786-0 renal
U251 CNS = system: U251 CNS
SK-MEL-2 melanoma = system: SK-MEL-2 melanoma
A498 renal = system: A498 renal
CAKI-1 renal = system: CAKI-1 renal
MDA-N = system: MDA-N
HL-60(TB) leukemia = system: HL-60(TB) leukemia
HT29 colon = system: HT29 colon
OVCAR-3 ovarian = system: OVCAR-3 ovarian
HS 578T breast = system: HS 578T breast
UACC-257 melanoma = system: UACC-257 melanoma
DU-145 prostate = system: DU-145 prostate
ACHN renal = system: ACHN renal
MDA-MB-231 breast = system: MDA-MB-231 breast
SF-295 CNS = system: SF-295 CNS
EKVX NSCLC = system: EKVX NSCLC
HOP-62 NSCLC = system: HOP-62 NSCLC
LOX IMVI melanoma = system: LOX IMVI melanoma
NCI-H460 lung = system: NCI-H460 lung
OVCAR-5 ovarian = system: OVCAR-5 ovarian
PC-3 prostate = system: PC-3 prostate
NCI-H23 lung = system: NCI-H23 lung
UO-31 renal = system: UO-31 renal
IGROV1 ovarian = system: IGROV1 ovarian
COLO 205 colon = system: COLO 205 colon
TK-10 renal = system: TK-10 renal
MOLT-4 leukemia = system: MOLT-4 leukemia
UACC-62 melanoma = system: UACC-62 melanoma
HOP-92 NSCLC = system: HOP-92 NSCLC
NCI/ADR-RES ovarian = system: NCI/ADR-RES ovarian
MCF7 breast = system: MCF7 breast
T-47D breast = system: T-47D breast
CCRF-CEM leukemia = system: CCRF-CEM leukemia
BT-549 breast = system: BT-549 breast
M14 melanoma = system: M14 melanoma
SF-268 CNS = system: SF-268 CNS
SNB-19 CNS = system: SNB-19 CNS
A549 NSCLC = system: A549 NSCLC
SR leukemia = system: SR leukemia
OVCAR-8 ovarian = system: OVCAR-8 ovarian
SK-OV-3 ovarian = system: SK-OV-3 ovarian
K-562 leukemia = system: K-562 leukemia
SF-539 CNS = system: SF-539 CNS
HCT-15 colon = system: HCT-15 colon
SK-MEL-28 melanoma = system: SK-MEL-28 melanoma
RXF 393 renal = system: RXF 393 renal
SNB-75 CNS = system: SNB-75 CNS
SK-MEL-5 melanoma = system: SK-MEL-5 melanoma
SN12C renal = system: SN12C renal
HCC-2998 colon = system: HCC-2998 colon
OVCAR-4 ovarian = system: OVCAR-4 ovarian
NCI-H522 lung = system: NCI-H522 lung
SW-620 colon = system: SW-620 colon

## Cc1c(C(=O)OCc2ccccc2)[n+](=O)c2ccccc2n1[O-]
HCT-116 colon
  TGI: 65.6 µM
RPMI-8226 leukemia
  TGI: 30.5 µM
NCI-H226 lung
  TGI: 57.1 µM
MDA-MB-435
  TGI: 75.2 µM
KM12 colon
  TGI: > 100 µM
786-0 renal
  TGI: > 100 µM
U251 CNS
  TGI: > 100 µM
SK-MEL-2 melanoma
  TGI: > 100 µM
A498 renal
  TGI: 94.3 µM
CAKI-1 renal
  TGI: 80.5 µM
MDA-N
  TGI: > 100 µM
HL-60(TB) leukemia
  TGI: 77.4 µM
HT29 colon
  TGI: > 100 µM
OVCAR-3 ovarian
  TGI: > 100 µM
HS 578T breast
  TGI: 72.9 µM
UACC-257 melanoma
  TGI: 56.1 µM
DU-145 prostate
  TGI: 47.8 µM
ACHN renal
  TGI: > 100 µM
MDA-MB-231 breast
  TGI: 64.8 µM
SF-295 CNS
  TGI: > 100 µM
EKVX NSCLC
  TGI: 91.5 µM
HOP-62 NSCLC
  TGI: 61.2 µM
LOX IMVI melanoma
  TGI: 44.8 µM
NCI-H460 lung
  TGI: > 100 µM
OVCAR-5 ovarian
  TGI: > 100 µM
PC-3 prostate
  TGI: > 100 µM
NCI-H23 lung
  TGI: 95.7 µM
UO-31 renal
  TGI: 86.3 µM
IGROV1 ovarian
  TGI: 34.1 µM
COLO 205 colon
  TGI: 37.6 µM
TK-10 renal
  TGI: 84.6 µM
MOLT-4 leukemia
  TGI: 43 µM
UACC-62 melanoma
  TGI: > 100 µM
HOP-92 NSCLC
  TGI: 13.4 µM
NCI/ADR-RES ovarian
  TGI: 93.8 µM
MCF7 breast
  TGI: > 100 µM
T-47D breast
  TGI: 57.2 µM
CCRF-CEM leukemia
  TGI: 0.199 µM
BT-549 breast
  TGI: > 100 µM
M14 melanoma
  TGI: > 100 µM
SF-268 CNS
  TGI: > 100 µM
SNB-19 CNS
  TGI: > 100 µM
A549 NSCLC
  TGI: 70.7 µM
SR leukemia
  TGI: 47.3 µM
OVCAR-8 ovarian
  TGI: > 100 µM
SK-OV-3 ovarian
  TGI: > 100 µM
K-562 leukemia
  TGI: > 100 µM
SF-539 CNS
  TGI: > 100 µM
HCT-15 colon
  TGI: > 100 µM
SK-MEL-28 melanoma
  TGI: > 100 µM
RXF 393 renal
  TGI: 69.1 µM
SNB-75 CNS
  TGI: 56.5 µM
SK-MEL-5 melanoma
  TGI: 53.6 µM
SN12C renal
  TGI: > 100 µM
HCC-2998 colon
  TGI: > 100 µM
OVCAR-4 ovarian
  TGI: 85 µM

## O=C(NCCc1[nH]nc2c1C(=O)C=C(Nc1ccccc1)C2=O)OCc1ccccc1
HCT-116 colon
  TGI: > 100 µM
RPMI-8226 leukemia
  TGI: > 100 µM
NCI-H226 lung
  TGI: > 100 µM
MDA-MB-435
  TGI: > 100 µM
KM12 colon
  TGI: > 100 µM
786-0 renal
  TGI: > 100 µM
U251 CNS
  TGI: > 100 µM
SK-MEL-2 melanoma
  TGI: > 100 µM
A498 renal
  TGI: > 100 µM
CAKI-1 renal
  TGI: > 100 µM
MDA-N
  TGI: > 100 µM
HL-60(TB) leukemia
  TGI: > 100 µM
HT29 colon
  TGI: > 100 µM
OVCAR-3 ovarian
  TGI: > 100 µM
HS 578T breast
  TGI: > 100 µM
UACC-257 melanoma
  TGI: > 100 µM
DU-145 prostate
  TGI: > 100 µM
ACHN renal
  TGI: > 100 µM
MDA-MB-231 breast
  TGI: > 100 µM
SF-295 CNS
  TGI: > 100 µM
EKVX NSCLC
  TGI: > 100 µM
LOX IMVI melanoma
  TGI: > 100 µM
NCI-H460 lung
  TGI: > 100 µM
OVCAR-5 ovarian
  TGI: > 100 µM
PC-3 prostate
  TGI: > 100 µM
NCI-H23 lung
  TGI: > 100 µM
UO-31 renal
  TGI: > 100 µM
IGROV1 ovarian
  TGI: > 100 µM
COLO 205 colon
  TGI: > 100 µM
TK-10 renal
  TGI: > 100 µM
MOLT-4 leukemia
  TGI: > 100 µM
UACC-62 melanoma
  TGI: > 100 µM
HOP-92 NSCLC
  TGI: > 100 µM
NCI-H522 lung
  TGI: > 100 µM
NCI/ADR-RES ovarian
  TGI: > 100 µM
MCF7 breast
  TGI: > 100 µM
T-47D breast
  TGI: > 100 µM
CCRF-CEM leukemia
  TGI: > 100 µM
BT-549 breast
  TGI: > 100 µM
M14 melanoma
  TGI: > 100 µM
SF-268 CNS
  TGI: > 100 µM
SNB-19 CNS
  TGI: > 100 µM
A549 NSCLC
  TGI: > 100 µM
SR leukemia
  TGI: > 100 µM
OVCAR-8 ovarian
  TGI: > 100 µM
SK-OV-3 ovarian
  TGI: > 100 µM
SW-620 colon
  TGI: > 100 µM
SF-539 CNS
  TGI: > 100 µM
HCT-15 colon
  TGI: > 100 µM
RXF 393 renal
  TGI: > 100 µM
SNB-75 CNS
  TGI: > 100 µM
SK-MEL-5 melanoma
  TGI: > 100 µM
SN12C renal
  TGI: > 100 µM
OVCAR-4 ovarian
  TGI: > 100 µM

— PubChem BioAssay (NCI)
